Measurements: ChEMBL document CHEMBL1153157, “Discovery of benzimidazole-diamide finger loop (Thumb Pocket I) allosteric inhibitors of HCV NS5B polymerase: Implementing parallel synthesis for rapid linker optimization” (Bioorg Med Chem Lett, 2010)
In brackets after ≈: the same amount, converted by molar mass. Activity calls are given as the source filed them. No cut-off for these calls is given here.

What was measured:
[1] = test system: Hepatitis C virus; test: Inhibition of N-terminal hexahistidine tagged HCV 1b NS5B polymerase expressed in baculovirus infected Sf21 cells after 90 mins by SPA; set-up: species or system Hepatitis C virus subtype 1b; conditions: Sf21, 1.5 h
[2] = test system: Hepatitis C virus; test: Antiviral activity against Hepatitis C virus subtype 1b by cell-based replicon assay; format: functional, organism-based, Hepacivirus hominis; conditions: genotype 1b
[3] = Lipophilicity, log D at pH 7.4; format: physicochemical; conditions: buffer
[4] = Aqueous solubility at pH 7.2; format: physicochemical; conditions: buffer
[5] = test system: Liver microsomes; test: (§1) Half life in human liver microsomes at 10 uM; format: ADME, Microsome; conditions: microsomes, 10 µM
[6] = target: T1, Cytochrome P450 1A2 (Homo sapiens, UniProt P05177); test: Inhibition of human liver CYP1A2; format: ADME
T1 sequence (P05177 whole entry): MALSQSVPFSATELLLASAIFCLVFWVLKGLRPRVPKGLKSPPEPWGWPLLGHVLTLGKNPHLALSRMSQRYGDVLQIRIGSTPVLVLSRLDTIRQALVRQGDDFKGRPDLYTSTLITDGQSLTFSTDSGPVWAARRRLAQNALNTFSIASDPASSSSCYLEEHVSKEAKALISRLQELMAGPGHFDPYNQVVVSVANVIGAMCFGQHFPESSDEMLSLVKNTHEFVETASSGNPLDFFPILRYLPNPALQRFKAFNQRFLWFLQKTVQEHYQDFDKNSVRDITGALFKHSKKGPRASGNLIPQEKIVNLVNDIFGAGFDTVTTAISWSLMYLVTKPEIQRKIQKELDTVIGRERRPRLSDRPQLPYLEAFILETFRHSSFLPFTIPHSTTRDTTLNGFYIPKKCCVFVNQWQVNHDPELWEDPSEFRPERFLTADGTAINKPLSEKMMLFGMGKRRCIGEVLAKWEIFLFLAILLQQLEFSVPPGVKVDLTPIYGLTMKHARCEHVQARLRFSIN

[7] = target: Cytochrome P450 2C9 (Homo sapiens, UniProt P11712); test: Inhibition of human liver CYP2C9; format: ADME
Chain of Cytochrome P450 2C9 (P11712 whole entry): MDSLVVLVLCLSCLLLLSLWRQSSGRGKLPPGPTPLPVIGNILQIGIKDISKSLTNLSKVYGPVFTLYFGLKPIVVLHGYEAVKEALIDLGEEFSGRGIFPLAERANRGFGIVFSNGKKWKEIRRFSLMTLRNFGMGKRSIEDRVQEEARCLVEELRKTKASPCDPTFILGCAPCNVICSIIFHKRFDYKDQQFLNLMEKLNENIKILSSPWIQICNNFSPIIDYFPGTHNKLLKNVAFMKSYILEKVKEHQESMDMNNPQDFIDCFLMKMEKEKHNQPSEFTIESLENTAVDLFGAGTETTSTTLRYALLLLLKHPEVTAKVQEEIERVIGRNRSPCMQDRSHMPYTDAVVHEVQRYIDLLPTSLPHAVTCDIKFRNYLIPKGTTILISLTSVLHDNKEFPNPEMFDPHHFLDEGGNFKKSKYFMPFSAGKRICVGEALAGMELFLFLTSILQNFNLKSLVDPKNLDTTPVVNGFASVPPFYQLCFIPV

[8] = target: Cytochrome P450 2C19 (Homo sapiens, UniProt P33261); test: Inhibition of human liver CYP2C19; format: ADME
Chain of Cytochrome P450 2C19 (P33261 whole entry): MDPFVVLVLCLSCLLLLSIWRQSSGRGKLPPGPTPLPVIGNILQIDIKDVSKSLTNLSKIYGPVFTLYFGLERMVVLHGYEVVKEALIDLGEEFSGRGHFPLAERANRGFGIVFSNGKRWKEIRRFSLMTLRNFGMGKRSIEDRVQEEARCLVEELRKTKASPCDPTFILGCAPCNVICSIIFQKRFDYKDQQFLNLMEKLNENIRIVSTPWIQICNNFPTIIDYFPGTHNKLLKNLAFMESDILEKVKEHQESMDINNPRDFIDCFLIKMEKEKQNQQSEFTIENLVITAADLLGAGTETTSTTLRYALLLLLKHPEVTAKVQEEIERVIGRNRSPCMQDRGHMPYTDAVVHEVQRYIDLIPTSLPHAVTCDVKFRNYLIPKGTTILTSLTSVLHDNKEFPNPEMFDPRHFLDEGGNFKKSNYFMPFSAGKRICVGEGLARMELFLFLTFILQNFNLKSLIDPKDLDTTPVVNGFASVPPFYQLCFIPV

[9] = target: Cytochrome P450 2D6 (Homo sapiens, UniProt P10635); test: Inhibition of human liver CYP2D6; format: ADME
Chain of Cytochrome P450 2D6 (P10635 whole entry): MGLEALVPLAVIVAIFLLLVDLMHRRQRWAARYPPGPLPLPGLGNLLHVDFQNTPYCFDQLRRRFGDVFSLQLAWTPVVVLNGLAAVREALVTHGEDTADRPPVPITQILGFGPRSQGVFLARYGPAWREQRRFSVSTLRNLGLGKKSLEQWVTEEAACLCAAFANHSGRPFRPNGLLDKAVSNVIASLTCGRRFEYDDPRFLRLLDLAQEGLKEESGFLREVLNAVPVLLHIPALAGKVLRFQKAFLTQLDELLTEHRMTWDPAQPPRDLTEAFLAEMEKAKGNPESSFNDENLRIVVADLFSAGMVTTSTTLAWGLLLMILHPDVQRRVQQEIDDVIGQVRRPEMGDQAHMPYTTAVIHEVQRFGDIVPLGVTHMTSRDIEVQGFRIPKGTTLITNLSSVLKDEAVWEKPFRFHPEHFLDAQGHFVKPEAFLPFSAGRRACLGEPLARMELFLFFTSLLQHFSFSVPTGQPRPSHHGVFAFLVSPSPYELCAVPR

[10] = target: Cytochrome P450 3A4 (Homo sapiens, UniProt P08684); test: Inhibition of human liver CYP3A4; format: ADME
Chain of Cytochrome P450 3A4 (P08684 whole entry): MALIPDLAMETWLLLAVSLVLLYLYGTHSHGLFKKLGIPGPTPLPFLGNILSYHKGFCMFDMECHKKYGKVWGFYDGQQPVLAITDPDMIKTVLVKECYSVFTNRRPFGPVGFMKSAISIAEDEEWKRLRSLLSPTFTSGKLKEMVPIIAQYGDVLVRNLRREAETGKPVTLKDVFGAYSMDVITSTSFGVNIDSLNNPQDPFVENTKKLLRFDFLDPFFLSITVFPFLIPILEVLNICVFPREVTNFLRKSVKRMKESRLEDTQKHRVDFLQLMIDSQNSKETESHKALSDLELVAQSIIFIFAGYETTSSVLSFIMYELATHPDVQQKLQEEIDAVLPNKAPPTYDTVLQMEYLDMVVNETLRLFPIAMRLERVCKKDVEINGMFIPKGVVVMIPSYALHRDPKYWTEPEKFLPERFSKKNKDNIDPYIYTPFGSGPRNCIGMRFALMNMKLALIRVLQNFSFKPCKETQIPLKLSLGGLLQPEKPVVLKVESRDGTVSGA

[11] = test system: Enterovirus C; test: Inhibition of Poliovirus RNA dependent RNA polymerase expressed in Escherichia coli BL21 (DE3) up to 200 uM after 90 mins by SPA
[12] = species on record: Bos taurus; test: Inhibition of calf thymus DNA-dependent RNA polymerase up to 200 uM after 120 mins
[13] = as §1; format: ADME, Microsome; conditions: liver microsomes

SMILES | IC50 [1] [nM] | EC50 [2] [nM] | other results
C[C@H](NC(=O)c1ccc2c(c1)nc(-c1ccoc1)n2C1CCCCC1)C(=O)Nc1ccc(/C=C/C(=O)O)cc1 | 360 | 25000 | –
CC(NC(=O)c1ccc2c(c1)nc(-c1ccoc1)n2C1CCCCC1)C(=O)Nc1ccc(C(=O)O)cc1 (racemic) | 390 | 30000 | –
O=C(O)/C=C/c1ccc(NC(=O)CNC(=O)c2ccc3c(c2)nc(-c2ccoc2)n3C2CCCCC2)cc1 | 280 | 41000 | –
CC(NC(=O)c1ccc2c(c1)nc(-c1ccoc1)n2C1CCCCC1)C(=O)Nc1ccc(/C=C/C(=O)O)cc1 (racemic) | 340 | 13000 | –
O=C(O)COc1ccc2[nH]cc(C[C@H](NC(=O)c3ccc4c(c3)nc(-c3ccoc3)n4C3CCCCC3)C(=O)O)c2c1 | 19 | – | –
C[C@@H](NC(=O)c1ccc2c(c1)nc(-c1ccoc1)n2C1CCCCC1)C(=O)Nc1ccc2[nH]c(C(=O)O)cc2c1 | 60 | > 40000 | –
CC(NC(=O)c1ccc2c(c1)nc(-c1ccoc1)n2C1CCCCC1)C(=O)Nc1cccc(/C=C/C(=O)O)c1 (racemic) | 900 | – | –
C[C@@H](NC(=O)c1ccc2c(c1)nc(-c1ccoc1)n2C1CCCCC1)C(=O)Nc1ccc2oc(C(=O)O)cc2c1 | 90 | > 42000 | –
CC[C@@H](NC(=O)c1ccc2c(c1)nc(-c1ccoc1)n2C1CCCCC1)C(=O)Nc1ccc(/C=C/C(=O)O)cc1 | 400 | 6500 | –
Cn1c(-c2ccoc2)c(C2CCCCC2)c2ccc(C(=O)N[C@@H](Cc3c[nH]c4ccc(O)cc34)c3cscn3)cc21 | 100 | 50 | –
CC(=O)COc1ccc(NC(=O)C(C)NC(=O)c2ccc3c(c2)nc(-c2ccoc2)n3C2CCCCC2)cc1 (racemic) | 900 | – | –
CC(NC(=O)c1ccc2c(c1)nc(-c1ccoc1)n2C1CCCCC1)C(=O)Nc1ccc(CC(=O)O)cc1 (racemic) | 1520 | – | –
CC(NC(=O)c1ccc2c(c1)nc(-c1ccoc1)n2C1CCCCC1)C(=O)Nc1cccc(C(=O)O)c1 (racemic) | 1610 | – | –
O=C(N[C@@H](Cc1c[nH]c2ccc(O)cc12)c1cscn1)c1ccc2c(c1)nc(-c1ccoc1)n2C1CCCCC1 | 300 | 1700 | logD [3]: 3.8; solubility [4]: < 0.07 µg/mL; t1/2 [5]: 26 min; IC50 [6]: > 30000 nM; IC50 [7]: 2300 nM; IC50 [8]: 2400 nM; IC50 [9]: 4000 nM; IC50 [10]: 400 nM
C[C@@H](NC(=O)c1ccc2c(c1)nc(-c1ccoc1)n2C1CCCCC1)C(=O)Nc1ccc(/C=C/C(=O)O)cc1 | 130 | 6900 | Activity [11]: inactive; Activity [12]: inactive; logD [3]: 2.2; solubility [4]: 171 µg/mL (≈ 325 µM); half-life at 10 µM [13]: 44 min; IC50 [6]: > 30000 nM; IC50 [7]: > 30000 nM; IC50 [8]: > 30000 nM; IC50 [9]: > 30000 nM; IC50 [10]: 12300 nM
CC(NC(=O)c1ccc2c(c1)nc(-c1ccoc1)n2C1CCCCC1)C(=O)Nc1ccc(-c2ccc(C(=O)O)o2)cc1 (racemic) | 450 | 28000 | –
